Results reported in patent publication US20090111836A1, “Angular Pyranocoumarins, Process for Preparation and Uses Thereof” (CITY UNIVERSITY OF HONG KONG, priority 2007, published 2009).

How the values were obtained:
KB V1 cells = experiment: SRB growth inhibition assay, KB V1; assay type: cell-based, human; settings: IC50 KB V1 / IC50 KB-3-1
HepG2-DR cells = experiment: SRB growth inhibition assay, HepG2-DR; assay type: cell-based, human; settings: IC50 HepG2-DR / IC50 HepG2
Method: K562, K562-DR, HepG2, HepG2-DR were cultured in RPMI-1640 medium containing 10% fetal bovine serum and 100 U/mL, antibiotics. […] Drug test: […] New calorimetric cytotoxicity assay for anticancer-drug screening. […] Mosmann T. Rapid colorimetric assay for cellular growth and survival: application to proliferation and cytotoxicity assays. […] Gerlier D, Thomasset N. […] Each growth inhibition experiment must be repeated three times and results are expressed as mean±standard deviation (SD). Solvents and media were included as blank control. In SRB assay, cells are inoculated at 5000 cells/well in a 96-well microplate and incubated overnight to let cells adhere. Drug treatment lasts for 72 hours and cells are fixed for 1 hour at 4° C. with 50 μl ice-cold 15% trichloroacetic acid and washed with triple-distilled water 5 times. […] The protein-bound dye is dissolved in 100 μl per well of 10 mM Tris base (pH 10.5). The color intensity of SRB, which positively correlate to cell number in preliminary experiments, is estimated at OD 515 nm.

P-gp [1] = biological target: T1, P-gp (Homo sapiens, UniProt P08183); experiment: Rhodamine-123 efflux assay, K562-DR; assay type: cell-based; design: K562-DR cell expressed P-gp at high level when compared with parental drug sensitive cells thereof; endogenous in cells; settings: 10 μM, 1 hour efflux
T1 sequence (P08183 whole entry): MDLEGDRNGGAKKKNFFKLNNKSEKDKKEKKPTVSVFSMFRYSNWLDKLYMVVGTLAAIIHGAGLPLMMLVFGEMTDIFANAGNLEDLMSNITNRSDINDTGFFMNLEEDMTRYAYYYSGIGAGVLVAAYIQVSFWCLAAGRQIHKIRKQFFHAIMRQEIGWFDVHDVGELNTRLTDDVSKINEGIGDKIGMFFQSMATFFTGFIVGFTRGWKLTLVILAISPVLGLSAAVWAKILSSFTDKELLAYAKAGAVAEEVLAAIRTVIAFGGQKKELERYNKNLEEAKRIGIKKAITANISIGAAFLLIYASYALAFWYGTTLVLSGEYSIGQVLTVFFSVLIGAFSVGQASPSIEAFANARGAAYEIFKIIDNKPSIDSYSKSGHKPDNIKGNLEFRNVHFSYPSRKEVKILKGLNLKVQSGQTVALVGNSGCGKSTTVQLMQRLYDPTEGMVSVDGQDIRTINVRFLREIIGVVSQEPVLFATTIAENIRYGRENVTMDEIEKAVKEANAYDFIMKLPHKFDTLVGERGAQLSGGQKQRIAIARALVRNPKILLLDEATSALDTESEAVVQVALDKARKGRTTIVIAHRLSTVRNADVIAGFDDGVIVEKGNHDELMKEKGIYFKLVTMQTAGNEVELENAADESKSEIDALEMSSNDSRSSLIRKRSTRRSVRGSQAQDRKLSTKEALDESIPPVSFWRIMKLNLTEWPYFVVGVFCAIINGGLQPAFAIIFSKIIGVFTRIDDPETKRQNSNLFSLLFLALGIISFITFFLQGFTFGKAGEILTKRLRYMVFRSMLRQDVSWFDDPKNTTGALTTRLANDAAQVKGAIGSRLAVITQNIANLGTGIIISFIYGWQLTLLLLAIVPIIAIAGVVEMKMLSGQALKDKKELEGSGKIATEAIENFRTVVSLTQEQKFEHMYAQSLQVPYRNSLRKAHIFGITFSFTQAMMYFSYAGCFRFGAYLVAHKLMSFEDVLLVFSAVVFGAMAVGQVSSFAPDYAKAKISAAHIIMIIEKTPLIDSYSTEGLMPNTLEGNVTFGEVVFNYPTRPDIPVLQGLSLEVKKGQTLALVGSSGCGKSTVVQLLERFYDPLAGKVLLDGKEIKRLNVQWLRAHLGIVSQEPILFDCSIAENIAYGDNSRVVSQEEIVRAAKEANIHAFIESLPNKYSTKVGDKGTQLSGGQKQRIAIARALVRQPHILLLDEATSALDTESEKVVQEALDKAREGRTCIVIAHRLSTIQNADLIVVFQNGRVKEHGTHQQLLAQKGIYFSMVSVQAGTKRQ
Method: (§1) (Fs: cellular fluorescence intensity of Rb-123 in the presence of testing drugs; Fo: cellular fluorescence intensity of Rh-123 in the absence of any P-gp modulator).
(§2) 1.4 Test for Rh-123 transport: HepG2-DR cells or K562-DR cells (1×10^6 cells in 1 mL complete growth medium) were incubated with 5 μg/mL, Rh-123 at 37° C. for 1 hour to allow Rh-123 uptake. […] Cellular fluorescence of Rh-123 was determined by flow cytometry to analyze the inhibitive effect of test compounds on drug expulsion from cells.

P-gp [2] = biological target: T1, P-gp; experiment: Rhodamine-123 efflux assay, HepG2-DR; assay type: cell-based; design: KB V1, HepG2-DR and K562-DR cell expressed P-gp at high level when compared with parental drug sensitive cells thereof; endogenous in cells; host or cells: HepG2-DR (doxorubicin-maintained multidrug resistant subline of HepG2); settings: 10 μM, 1 hour efflux
Method: as §1, §2

SMILES | Resistant ratio (KB V1 cells) | Resistant ratio (HepG2-DR cells) | Increase in cellular Rh-123 fluorescence compared with untreated cells (P-gp [1]) [%] | Increase in cellular Rh-123 fluorescence compared with untreated cells (P-gp [2]) [%]
COc1ccc(C(=O)O[C@@H]2c3c(ccc4ccc(=O)oc34)OC(C)(C)[C@@H]2OC(=O)c2ccc(OC)c(OC)c2)cc1OC (racemic) [cis-DMDBK, (±)-3′-O,4′-O-bis(3,4-dimethoxybenzoyl)-cis-khellactone] | 0.46 | 1.19 | 140 | 400
COc1ccc(C(=O)O[C@@H]2[C@@H](OC(=O)c3ccc(OC)c(OC)c3)c3c(ccc4ccc(=O)oc34)OC2(C)C)cc1OC (racemic) [trans-DMDBK, (±)-3′-O,4′-O-bis(3,4-dimethoxybenzoyl)-trans-khellactone] | 0.53 | 1.31 |  | 
COc1ccc(/C=C/C(=O)O[C@@H]2c3c(ccc4ccc(=O)oc34)OC(C)(C)[C@@H]2OC(=O)/C=C/c2ccc(OC)c(OC)c2)cc1OC (racemic) [cis-DMDCK, (±)-3′-O,4′-O-bis(3,4-dimethoxycinnamoyl)-cis-khellactone] | 0.52 | 1.29 | 200 | 480
COc1ccc(/C=C/C(=O)O[C@@H]2[C@@H](OC(=O)/C=C/c3ccc(OC)c(OC)c3)c3c(ccc4ccc(=O)oc34)OC2(C)C)cc1OC (racemic) [trans-DMDCK, (±)-3′-O,4′-O-bis(3,4-dimethoxycinnamoyl)-trans-khellactone] | 0.47 | 1.36 |  | 
